The values below come from patent publication US7012128B2, “Interaction between cyclin D1 and steroid receptor co-activators and uses thereof in assays” (TopoTarget UK Limited, priority 1998, dated 2006).

For one assay, the system named is pRb. Put plainly: Phosphorylation of pRb in Rb-/- 3T3 cells. It is filed as cell-based. As to conditions: cells that lack cyclin D1-associated kinase activity, low serum. The text has this:
COS-7 cells were cotransfected with HA-tagged constructs encoding the nuclear receptor coactivators SRC-1, AIB-1 or p300 (Anzick et al., 1997; Chakravarti et al., 1996; Hanstein et al., 1996; Kamei et al., 1996; Onate et al., 1995) together with control plasmid, plasmids directing the synthesis of wild type cyclin D1 or D1 L254/255A mutant (D1-LALA). 12CA5 HA antibodies were used for immunoprecipitation of whole cell extracts prepared from these cells and co-immunoprecipitation of cyclin D1 (mutants) was examined by Western blot analysis using anti-cyclin D1 antibody. […] Precipitation with the anti-cyclin D1 antibody from the total lysate of the cells transfected with cyclin D1 and cyclin D1-LALA was similar. Binding of cyclin D1 and cyclin D1 L254/255A mutant to ER was then investigated. COS-7 cells were transfected with ER expression vector, cyclin D1 (mutant) and/or control plasmids. Monoclonal ER antibodies were used for immunoprecipitation of ER of whole cell extracts prepared from these cells and co-immunoprecipitation of cyclin D1 (mutant) was examined by Western blot analysis using monoclonal cyclin D1 antibodies. […] The activity of cyclin D1 and D1 L254/255A mutant in phosphorylation of pRb in Rb^−/− 3T3 cells was also investigated. […] Differentially phosphorylated species of pRb were detected by Western blotting using the polyclonal pRb antibody (C15, Santa Cruz).

Assay [1] has as its target T1, ER (Homo sapiens, UniProt P03372).
T1 sequence (P03372 1-595): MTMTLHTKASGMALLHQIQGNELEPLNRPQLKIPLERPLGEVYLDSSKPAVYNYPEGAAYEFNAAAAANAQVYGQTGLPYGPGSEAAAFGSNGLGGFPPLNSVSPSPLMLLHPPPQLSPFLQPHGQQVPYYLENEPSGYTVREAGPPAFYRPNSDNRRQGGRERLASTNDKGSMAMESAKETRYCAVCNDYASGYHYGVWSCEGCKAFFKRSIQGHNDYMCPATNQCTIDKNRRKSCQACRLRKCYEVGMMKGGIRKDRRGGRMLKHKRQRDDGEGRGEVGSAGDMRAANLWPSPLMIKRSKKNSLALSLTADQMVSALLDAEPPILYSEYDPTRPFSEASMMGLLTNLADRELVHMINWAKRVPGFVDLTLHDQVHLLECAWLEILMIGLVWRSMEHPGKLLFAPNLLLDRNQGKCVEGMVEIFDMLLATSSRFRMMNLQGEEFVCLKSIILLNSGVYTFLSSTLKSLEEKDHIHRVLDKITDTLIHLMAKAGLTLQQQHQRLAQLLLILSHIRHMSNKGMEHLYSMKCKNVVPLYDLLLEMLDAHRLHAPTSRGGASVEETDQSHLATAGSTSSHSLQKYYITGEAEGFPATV
The assay can be described thus: Co-immunoprecipitation with ER from COS-7 cells. It is filed as binding. Also on record: expressed in transfected cells; host or cells: COS-7. An excerpt: (§1) COS-7 cells were cotransfected with HA-tagged constructs encoding the nuclear receptor coactivators SRC-1, AIB-1 or p300 (Anzick et al., 1997; Chakravarti et al., 1996; Hanstein et al., 1996; Kamei et al., 1996; Onate et al., 1995) together with control plasmid, plasmids directing the synthesis of wild type cyclin D1 or D1 L254/255A mutant (D1-LALA). 12CA5 HA antibodies were used for immunoprecipitation of whole cell extracts prepared from these cells and co-immunoprecipitation of cyclin D1 (mutants) was examined by Western blot analysis using anti-cyclin D1 antibody. […] Precipitation with the anti-cyclin D1 antibody from the total lysate of the cells transfected with cyclin D1 and cyclin D1-LALA was similar. Binding of cyclin D1 and cyclin D1 L254/255A mutant to ER was then investigated. COS-7 cells were transfected with ER expression vector, cyclin D1 (mutant) and/or control plasmids. […] Differentially phosphorylated species of pRb were detected by Western blotting using the polyclonal pRb antibody (C15, Santa Cruz).
(§2) Cells were lysed in ELB containing 250 mM NaCl, 0.1% NP-40, 50 mM HEPES pH 7.0, 5 mM EDTA and protease inhibitors. […] After blocking with PBS containing 5% milk and 0.1% Tween-20, proteins were detected with monoclonal antibodies directed against cyclin D1 (DCS-6, Neomarkers) and peroxidase-conjugated goat anti-mouse IgG. […]

Assay [2] has as its system SRC family proteins (SRC-1, AIB-1). Put plainly: Co-immunoprecipitation with HA-tagged coactivators from COS-7 cells. The format is binding. The note with it: absence of 17β-estradiol.
Excerpt: as §1, §2

For assay [3], the target named is T1, ER. The assay can be described thus: ER activation, ERE-reporter gene, in MCF-7 cells. The format is cell-based. Also on record: T47D and MCF-7, which contain endogenous wild type ER; endogenous in cells; host or cells: MCF-7; T47D. The note with it: MCF-7, relative high levels of cyclin D1; 17β-estradiol enriched medium. The text has this:
The ER-containing T47D and MCF-7 breast cancer cells were maintained in 17β-estradiol enriched medium with 10%fetal calf serum after cotransfection with a cyclin D1 L254/255A mutant expression vector and an ERE-reporter gene for testing its effect on ER activation (left panel). ER transactivation in the absence of co-expression of the cyclin D1 mutant was set at 100%.
To get more insight in the role of cyclin D1 in ER transactivation in breast cancers with elevated levels of cyclin D1, we have tested the effect of the mutant cyclin D1 L254/255A on ER activation in two different breast cancer cell lines. This cyclin D1 mutant does bind to ER, but fails both to interact with SRC-1 as shown above and consequently fails to activate ER (FIG. 1B). Therefore, this mutant can act as a dominant negative in cyclin D1-mediated ER transactivation as it binds to ER and fails to recruit coactivators. We tested the effect of this cyclin D1 mutant on ER activation in two breast cancer cell lines, T47D and MCF-7, which contain endogenous wild type ER, but differ in their cyclin D1 protein levels (FIG. 6). […] In contrast, in MCF-7, which contain relative high levels of cyclin D1 (FIG. 6), the cyclin D1 mutant inhibited up to 50% of ER activity. Thus, this dominant negative cyclin D1 mutant preferentially interferes with ER activation in breast cancer cells that have high levels of cyclin D1 protein.

The test system of assay [4] is MCF-7 breast cancer cells. The assay can be described thus: Cell cycle profiles by FACS after transient transfection. It is filed as cell-based. As to conditions: transient transfection of MCF-7. As for the experimental part: Cell cycle profiles were analysed using fluuorescence activated cell sorting (FACS)(Allen, 1990; Baldetorp et al, 1998).

On to “Cyclin D1-LALA: cyclin D1 mutant in which leucines 254 and 255 were mutated to alanines; dominant negative”, for which, in the assay on pRb, the “ability to phosphorylate pRb” value is on record as “unaffected”. Besides, the “ability to bind ER” value in the assay with ER [1] was “unaffected”. Further, in assay [2], the “interaction with SRC family proteins” value is “did not interact”. The “inhibition of ER activity” value with ER [3] was “up to 50%”. Further, in assay [4], the “effect on cell cycle” value is recorded as “arrest in the cell cycle at the G1/S checkpoint”. In addition, in assay [4] (FACS), the “Phase of cell cycle G0/G1” value is on record as 81.9%, the “Phase of cell cycle G2/M” value is recorded as 7.9% and the “Phase of cell cycle S” value turned out to be 10.2%.
